Consider 17 compounds from US9920032B2, “Heterocyclic compounds useful as pim kinase inhibitors” (Incyte Corporation, priority 2015, dated 2018).

Each structure is given as a SMILES string.

Common to all, as to assay type: biochemical
One experiment has as its target Pim-2 (Homo sapiens (Human), UniProt Q9P1W9). Nature of the experiment: Pim-2 kinase assay. The conditions noted are these: 1 mM ATP; read-out: PIM2 IC50. Put shortly:
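TR-FRET assay with 1 nM enzyme, 0.05 μM fluorescein-CREBtide and 1 mM ATP in Tris pH 7.5 buffer with MgCl2, DTT, BSA and Tween-20, run 2 h at 25° C. Stopped with EDTA and Tb-labelled anti-CREB pSer133 antibody, then read after 30 min at room temperature.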

The target in another experiment is Pim-1 (Homo sapiens (Human), UniProt P11309). The experiment in a line: Pim-1 kinase assay. The conditions noted are these: 1 mM ATP; read-out: PIM1 IC50. In outline: (§1)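 Biotin-BAD peptide (0.05 μM) phosphorylated with 1 mM ATP by 2.5 pM Pim-1 or 1.25 pM Pim-3 in Tris pH 7.5/MgCl2/DTT buffer, 1 h at 25° C. EDTA stop; phospho-BAD (Ser112) antibody with streptavidin donor and Protein-A acceptor beads, 1 h dark at room temperature before AlphaScreen-type bead read.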
Sequence of Pim-1 (P11309 whole entry): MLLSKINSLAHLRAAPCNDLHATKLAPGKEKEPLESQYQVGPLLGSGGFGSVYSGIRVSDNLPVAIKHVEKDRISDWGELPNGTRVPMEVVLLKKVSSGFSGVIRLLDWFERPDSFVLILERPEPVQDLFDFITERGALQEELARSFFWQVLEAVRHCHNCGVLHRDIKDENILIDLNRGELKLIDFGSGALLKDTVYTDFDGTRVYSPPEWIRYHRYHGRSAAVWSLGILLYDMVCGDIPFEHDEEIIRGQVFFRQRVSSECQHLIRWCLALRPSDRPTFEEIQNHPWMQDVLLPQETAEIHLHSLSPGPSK

The target of the next experiment is Pim-3 (Homo sapiens (Human), UniProt Q86V86). Nature of the experiment: Pim-3 kinase assay. The conditions noted are these: 1 mM ATP; read-out: PIM3 IC50. In outline:
as §1

Sequence of Pim-2 (Q9P1W9 whole entry): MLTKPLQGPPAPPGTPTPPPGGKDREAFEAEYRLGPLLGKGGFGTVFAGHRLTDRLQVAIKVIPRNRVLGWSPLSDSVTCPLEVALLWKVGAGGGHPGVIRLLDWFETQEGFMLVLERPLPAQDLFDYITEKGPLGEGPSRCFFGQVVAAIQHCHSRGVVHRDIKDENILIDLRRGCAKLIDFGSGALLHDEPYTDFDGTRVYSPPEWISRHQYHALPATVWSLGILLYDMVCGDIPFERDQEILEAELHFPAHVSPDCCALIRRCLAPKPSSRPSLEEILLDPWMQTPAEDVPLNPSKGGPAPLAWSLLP

As usually defined, the IC50 is the point on the concentration scale where inhibition reaches its midpoint. `Cc1ccncc1N(C)c1cnc2c(C(=O)Nc3cnccc3[C@@H]3C[C@H](C)C[C@H](N)C3)ccc(F)c2c1` [Example 146, N-(4-((1R,3S,5S)-3-Amino-5-methylcyclohexyl)pyridin-3-yl)-5-fluoro-3-(methyl(4-methylpyridin-3-yl)amino)quinoline-8-carboxamide]: the figures for the IC50 on Pim-2, at Pim-1 and on Pim-3 were at most 100 nM, at most 10 nM and at most 10 nM, respectively.
For the compound `C[C@@H]1C[C@H](N)C[C@H](c2ccncc2NC(=O)c2ccc(F)c3cc(N4CCCN(C)S4(=O)=O)cnc23)C1` [Example 128, N-(4-((1R,3S,5S)-3-Amino-5-methylcyclohexyl)pyridin-3-yl)-5-fluoro-3-(6-methyl-1,1-dioxido-1,2,6-thiadiazinan-2-yl)quinoline-8-carboxamide], the IC50 was at most 100 nM on Pim-2, at most 10 nM at Pim-1 and at most 10 nM at Pim-3.
As to `CC1CN(c2cnc3c(C(=O)Nc4cnccc4[C@@H]4C[C@H](C)C[C@H](N)C4)ccc(F)c3c2)C1` [Example 111, N-(4-((1R,3S,5S)-3-Amino-5-methylcyclohexyl)pyridin-3-yl)-5-fluoro-3-(3-methylazetidin-1-yl)quinoline-8-carboxamide], the IC50 was at most 100 nM at Pim-2, at most 10 nM at Pim-1 and at most 10 nM on Pim-3.
Turning to `C[C@@H]1C[C@H](N)C[C@H](c2ccncc2NC(=O)c2ccc(F)c3cc(-c4c(F)cc(O)cc4F)cnc23)C1` [Example 18, N-{4-[(1R,3S,5S)-3-Amino-5-methylcyclohexyl]pyridin-3-yl}-3-(2,6-difluoro-4-hydroxyphenyl)-5-fluoroquinoline-8-carboxamide], the IC50 at Pim-2 is at most 100 nM; on Pim-1 it was at most 10 nM; at Pim-3, at most 10 nM.
For the compound `C[C@@H]1C[C@H](N)C[C@H](c2ccncc2NC(=O)c2ccc(F)c3cc(N4CC[C@@H](C#N)C4)cnc23)C1` [Example 8, N-{4-[(1R,3S,5S)-3-Amino-5-methylcyclohexyl]pyridin-3-yl}-3-[(3R)-3-cyanopyrrolidin-1-yl]-5-fluoroquinoline-8-carboxamide], the results for the IC50 on Pim-2, on Pim-1 and on Pim-3 were at most 100 nM, at most 10 nM and at most 10 nM, respectively.
With `C[C@@H]1C[C@H](N)C[C@H](c2ccncc2NC(=O)c2ccc(F)c3cc(N(C)C)cnc23)C1` [Example 25, N-{4-[(1R,3S,5S)-3-Amino-5-methylcyclohexyl]pyridin-3-yl}-3-(dimethylamino)-5-fluoroquinoline-8-carboxamide], the IC50 is at most 100 nM on Pim-2, at most 10 nM at Pim-1 and at most 10 nM at Pim-3.
Take `CC(C)N(C)c1cnc2c(C(=O)Nc3cnccc3[C@@H]3C[C@H](C)C[C@H](N)C3)ccc(F)c2c1` [Example 56, N-(4-((1R,3S,5S)-3-Amino-5-methylcyclohexyl)pyridin-3-yl)-5-fluoro-3-(isopropyl(methyl)amino)quinoline-8-carboxamide]: the IC50 on Pim-2 was at most 100 nM; on Pim-1, at most 10 nM; at Pim-3 it was at most 10 nM.
In the case of `C[C@@H]1C[C@H](N)C[C@H](c2ccncc2NC(=O)c2ccc(F)c3cc(N(C)C4CCCC4C#N)cnc23)C1` (stereo partly drawn) [Example 140, N-(4-((1R,3S,5S)-3-Amino-5-methylcyclohexyl)pyridin-3-yl)-3-((2-cyanocyclopentyl)(methyl)amino)-5-fluoroquinoline-8-carboxamide], the IC50 was at most 100 nM at Pim-2, at most 10 nM on Pim-1 and at most 10 nM at Pim-3.
With `C[C@@H]1C[C@H](N)C[C@H](c2ccncc2NC(=O)c2ccc(F)c3cc(N4CCC[C@H]4C)cnc23)C1` [Example 34, N-(4-((1R,3S,5S)-3-Amino-5-methylcyclohexyl)pyridin-3-yl)-5-fluoro-3-((R)-2-methylpyrrolidin-1-yl)quinoline-8-carboxamide], the IC50 was at most 100 nM on Pim-2, at most 10 nM on Pim-1 and at most 10 nM at Pim-3.
For `CC1CCCCN1c1cnc2c(C(=O)Nc3cnccc3[C@@H]3C[C@H](C)C[C@H](N)C3)ccc(F)c2c1` (stereo partly drawn) [Example 43, N-(4-((1R,3S,5S)-3-Amino-5-methylcyclohexyl)pyridin-3-yl)-5-fluoro-3-(2-methylpiperidin-1-yl)quinoline-8-carboxamide], the IC50 at Pim-2 was at most 100 nM; at Pim-1 it was at most 10 nM; at Pim-3, at most 10 nM.
As for `C[C@@H]1C[C@H](N)C[C@H](c2ccncc2NC(=O)c2ccc(F)c3cc(N(C)CC4CC4)cnc23)C1` [Example 19, N-{4-[(1R,3S,5S)-3-Amino-5-methylcyclohexyl]pyridin-3-yl}-3-[(cyclopropylmethyl)(methyl)amino]-5-fluoroquinoline-8-carboxamide], the IC50 on Pim-2 is 100 to 1000 nM; on Pim-1, at most 10 nM; on Pim-3 it was at most 10 nM.
Turning to `C[C@@H]1C[C@H](N)C[C@H](c2ccncc2NC(=O)c2ccc(F)c3cc(N(C)c4ncccc4F)cnc23)C1` [Example 142, N-(4-((1R,3S,5S)-3-Amino-5-methylcyclohexyl)pyridin-3-yl)-5-fluoro-3-((3-fluoropyridin-2-yl)(methyl)amino)quinoline-8-carboxamide], the values for the IC50 on Pim-2, on Pim-1 and at Pim-3 were at most 100 nM, at most 10 nM and at most 10 nM, respectively.
In the case of `C[C@@H]1C[C@H](N)C[C@H](c2ccncc2NC(=O)c2ccc(F)c3cc(N4C[C@H]5C[C@@H]4CO5)cnc23)C1` [Example 80, N-(4-((1R,3S,5S)-3-Amino-5-methylcyclohexyl)pyridin-3-yl)-3-((1R,4R)-2-oxa-5-azabicyclo[2.2.1]heptan-5-yl)-5-fluoroquinoline-8-carboxamide], the IC50 at Pim-2 was at most 100 nM; on Pim-1 it was at most 10 nM; at Pim-3, at most 10 nM.
Consider `C[C@@H]1C[C@H](N)C[C@H](c2ccncc2NC(=O)c2ccc(F)c3cc(N(C)C4CCC4)cnc23)C1` [Example 24, N-{4-[(1R,3S,5S)-3-Amino-5-methylcyclohexyl]pyridin-3-yl}-3-[cyclobutyl(methyl)amino]-5-fluoroquinoline-8-carboxamide], for which the IC50 was 100 to 1000 nM on Pim-2, at most 10 nM on Pim-1 and at most 10 nM on Pim-3.
Take `CO[C@H]1CCCN(c2cnc3c(C(=O)Nc4cnccc4[C@@H]4C[C@H](C)C[C@H](N)C4)ccc(F)c3c2)C1` [Example 11, N-{4-[(1R,3S,5S)-3-Amino-5-methylcyclohexyl]pyridin-3-yl}-5-fluoro-3-[(38)-3-methoxypiperidin-1-yl]quinoline-8-carboxamide]: the IC50 is 100 to 1000 nM at Pim-2, at most 10 nM on Pim-1 and at most 10 nM at Pim-3.
As for `C[C@@H]1C[C@H](N)C[C@H](c2ccncc2NC(=O)c2ccc(F)c3cc(-c4c(F)cccc4C#N)cnc23)C1` [Example 15, N-{4-[(1R,3S,5S)-3-Amino-5-methylcyclohexyl]pyridin-3-yl}-3-(2-cyano-6-fluorophenyl)-5-fluoroquinoline-8-carboxamide], the IC50 on Pim-2 was at most 100 nM; on Pim-1 it was at most 10 nM; on Pim-3, at most 10 nM.
As for `C[C@@H]1C[C@H](N)C[C@H](c2ccncc2NC(=O)c2ccc(F)c3cc(N(C)CCF)cnc23)C1` [Example 22, N-{4-[(1R,3S,5S)-3-Amino-5-methylcyclohexyl]pyridin-3-yl}-5-fluoro-3-[(2-fluoroethyl)(methyl)amino]quinoline-8-carboxamide], the results for the IC50 on Pim-2, at Pim-1 and on Pim-3 were at most 100 nM, at most 10 nM and at most 10 nM, respectively.
